The target of assay [1] is MDM2-p53 interaction (in vitro translated MDM2, biotinylated IP3 peptide) (Homo sapiens, UniProt Q00987). Nature of the assay: MDM2-p53 interaction 96-well plate binding assay (ELISA). The note with it: for inhibition at 0.03 µM: @ 0.030 μM. (ELISA stands for enzyme-linked immunosorbent assay.)
Procedure: The ELISA assay was performed in streptavidin coated plates which were preincubated with 200 μl per well of 1 μg ml^−1 biotinylated IP3 peptide. The plates were ready to use for MDM2 binding after washing the plate with PBS.
The unbound secondary antibody was removed by washing three times with TBS-Tween. The bound HRP activity was measured by enhanced chemiluminesence (ECL™, Amersham Biosciences) using the oxidation of the diacylhydrazide substrate, luminol, to generate a quantifiable light signal. The percentage of MDM2 inhibition at a given concentration is calculated as the [1−(RLU detected in the compound treated sample−RLU negative DMSO control)÷(RLU of DMSO positive and negative controls)]×100 or as the (RLU detected in the compound treated sample÷RLU of DMSO controls)×100. The IC50 was calculated using a plot of % MDM2 inhibition vs concentration and is the average of two or three independent experiments.
For assay [2], the system named is SJSA-1. The experiment in a line: Protocol B: SJSA-1 CellTiter-Glo cell viability. The following applies: for SJSA1 (Protocol B) % at concentration: SJSA-1, Protocol B, at 10 μM. (In general: ATP-based viability assays read luminescence as a measure of living cells.)
Where [3] appears, read: @ 0.10 μM, read-out: MDM2 % @ concentration.
Setting [4] is: read-out: MDM2 % @ concentration.
Setting [5] is: @ 0.0010 μM, read-out: MDM2 % @ concentration.
Setting [6] is: Homo sapiens, SJSA-1, 72 h, read-out: SJSA1 IC50 (μM) (Protocol B), SJSA-1, Protocol B (CellTiter-Glo), 72 hrs.
Setting [7] is: @ 0.30 μM, read-out: MDM2 % @ concentration.
Setting [8] is: Homo sapiens, SJSA-1, 72 h, read-out: SJSA1 IC50 (Protocol B), SJSA-1 cells, CellTiter-Glo, 72 hrs.

The results in this text go back to patent US10526311B2 (ASTEX THERAPEUTICS LIMITED, priority 2015, dated 2020).

For orientation: IC50 means the concentration at which inhibition is half-maximal.

Where two headings read alike, the source gives them in different places.

Chain of MDM2-p53 interaction (in vitro translated MDM2, biotinylated IP3 peptide) (Q00987 whole entry): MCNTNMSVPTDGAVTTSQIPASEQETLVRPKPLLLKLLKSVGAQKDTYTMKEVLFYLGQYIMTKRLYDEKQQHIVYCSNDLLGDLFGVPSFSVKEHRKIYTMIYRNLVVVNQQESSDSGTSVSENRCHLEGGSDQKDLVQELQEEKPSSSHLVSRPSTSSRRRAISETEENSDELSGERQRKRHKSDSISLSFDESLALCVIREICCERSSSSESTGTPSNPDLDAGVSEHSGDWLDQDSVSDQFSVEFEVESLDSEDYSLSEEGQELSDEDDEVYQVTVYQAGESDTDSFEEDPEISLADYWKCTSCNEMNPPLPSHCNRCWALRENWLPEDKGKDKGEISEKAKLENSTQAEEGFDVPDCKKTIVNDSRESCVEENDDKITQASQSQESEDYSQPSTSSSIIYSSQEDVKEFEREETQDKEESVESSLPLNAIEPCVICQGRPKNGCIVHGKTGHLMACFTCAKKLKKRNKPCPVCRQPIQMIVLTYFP

With `CO[C@]1(c2ccc(Cl)cc2)c2ccc(C(C)(O)C(=O)NCCN(C)C)cc2C(=O)N1Cc1ccc(Cl)cn1` (stereo partly drawn) [Example 150, 2-[(1R)-1-(4-Chlorophenyl)-2-[(5-chloropyridin-2-yl)methyl]-1-methoxy-3-oxo-2,3-dihydro-1H-isoindol-5-yl]-N-[2-(dimethylamino)ethyl]-2-hydroxypropanamide], the inhibition at 0.1 µM in assay [1] (setting [3]) turned out to be 49%.

In the case of `C[C@H](c1ccc(Cl)cn1)N1C(=O)c2cc(C(C)(C)O)cc(F)c2[C@]1(OCC1(C(N)=O)CC1)c1ccc(Cl)cc1` [Example 71, 1-({[(1R)-1-(4-chlorophenyl)-2-[(1R)-1-(5-chloropyridin-2-yl)ethyl]-7-fluoro-5-(2-hydroxypropan-2-yl)-3-oxo-2,3-dihydro-1H-isoindol-1-yl]oxy}methyl)cyclopropane-1-carboxamide], in assay [1], the IC50 is 82 nM.

As for `CCC(O)(c1cc(F)c2c(c1)C(=O)N(Cc1ccc(C#N)cn1)[C@@]2(OCCOC)c1ccc(Cl)cc1)c1cn(C)cn1` (single isomer, unassigned) [Example 429], the inhibition at 0.1 µM in assay [1] (setting [3]) stood at 65%.

For `CC(C)(O)c1cc(F)c2c(c1)C(=O)N([C@H](c1ccc(Cl)cn1)C(O)CO)[C@@]2(OCC1(O)CC1)c1ccc(Cl)cc1` (stereo partly drawn) [Example 331, (3R)-3-(4-Chlorophenyl)-2-[(1R)-1-(5-chloropyridin-2-yl)-2,3-dihydroxypropyl]-4-fluoro-3-[(1-hydroxycyclopropyl)methoxy]-6-(2-hydroxypropan-2-yl)-2,3-dihydro-1H-isoindol-1-one], the inhibition at 0.03 µM in assay [1] (setting [4]) stood at 49%.

Take `CCC(O)(c1cc(F)c2c(c1)C(=O)N(Cc1ncc(C#N)cn1)[C@@]2(O[C@H]1CCOC1)c1ccc(Cl)cc1)[C@H]1CC[C@H](O)CC1` (stereo partly drawn) [Example 503, 2-{[(1R)-1-(4-chlorophenyl)-7-fluoro-5-{1-hydroxy-1-[trans-4-hydroxycyclohexyl]propyl}-3-oxo-1-[(3S)-oxolan-3-yloxy]-2,3-dihydro-1H-isoindol-2-yl]methyl}pyrimidine-5-carbonitrile]: in assay [1] (setting [5]), the inhibition at 0.001 µM is 87%. Besides, the IC50 in assay [2] (setting [6]) turned out to be 0.011 µM.

Consider `CO[C@]1(c2ccc(Cl)cc2)c2ccc(C(C)(O)CN3CCOCC3=O)cc2C(=O)N1Cc1ccc(Cl)cn1` (single isomer, unassigned) [Example 327], for which the inhibition at 0.3 µM in assay [1] (setting [7]) worked out at 42%.

Consider `CCC(O)(c1cc(F)c2c(c1)C(=O)N(Cc1ccc(C#N)cn1)[C@@]2(OCCO)c1ccc(Cl)cc1)C1(F)CCOCC1` (single isomer, unassigned) [Example 500], for which the inhibition at 0.1 µM in assay [1] (setting [3]) amounted to 21%. In addition, the “SJSA1 (Protocol B) % at concentration” value in assay [2] came to 16% at 10.

`CCC(O)(c1cc(F)c2c(c1)C(=O)N(Cc1ncc(C#N)cn1)[C@@]2(OCC1(C#N)CC1)c1ccc(Cl)cc1)c1cn(C)cn1` (single isomer, unassigned) [Example 463]: the inhibition at 0.1 µM in assay [1] (setting [3]) stood at 73%.

On to `CO[C@]1(c2ccc(Cl)cc2)c2ccc(C(C)(O)CN3CC(=O)NC3=O)cc2C(=O)N1Cc1ccc(Cl)cn1` (single isomer, unassigned) [Example 330], for which the “MDM2 % @ concentration” value in assay [1] (@ 0.30 μM) is listed as 36% @ 0.30.

Turning to `CO[C@]1(c2ccc(Cl)cc2)c2ccc(C(C)(O)CN3CCNC3=O)cc2C(=O)N1Cc1ccc(Cl)cn1` (single isomer, unassigned) [Example 157], the inhibition at 0.3 µM in assay [1] (setting [7]) was found to be 39%.

With `Cn1cc(C(C)(O)c2cc(F)c3c(c2)C(=O)N(Cc2ncc(F)cc2F)[C@@]3(OCC2(O)CC2)c2ccc(Cl)cc2)cn1` (single isomer, unassigned) [Example 351], the inhibition at 0.1 µM in assay [1] (setting [3]) is 25%.

Consider `CCC(O)(c1cc(F)c2c(c1)C(=O)N(Cc1ccc(C#N)cn1)[C@@]2(O[C@H]1CCOC1)c1ccc(Cl)cc1)c1cnn(C)c1` (single isomer, unassigned) [Example 358], for which, in assay [1] (setting [5]), the inhibition at 0.001 µM stood at 74%.

On to `CO[C@]1(c2ccc(Cl)cc2)c2ccc(C(C)(O)CN3CCNC3=O)cc2C(=O)N1Cc1ccc(Cl)cn1` (single isomer, unassigned) [Example 158], for which the inhibition at 0.1 µM in assay [1] (setting [3]) turned out to be 57%.

As to `CCC(O)(c1cc(F)c2c(c1)C(=O)N(Cc1ccc(C#N)cn1)[C@@]2(OC[C@@H](C)O)c1ccc(Cl)cc1)C1(F)CCOCC1` (single isomer, unassigned) [Example 498], in assay [1] (setting [3]), the inhibition at 0.1 µM stood at 32%. Further, the “SJSA1 (Protocol B) % at concentration” value in assay [2] was found to be 96% at 10.

Molecule `C[C@@H](c1ccc(Cl)cn1)N1C(=O)c2cc(C(C)(C)O)cc(F)c2[C@]1(OCC1(C(N)=O)CC1)c1ccc(Cl)cc1` [Example 70, 1-({[(1R)-1-(4-chlorophenyl)-2-[(1S)-1-(5-chloropyridin-2-yl)ethyl]-7-fluoro-5-(2-hydroxypropan-2-yl)-3-oxo-2,3-dihydro-1H-isoindol-1-yl]oxy}methyl)cyclopropane-1-carboxamide] had an IC50 in assay [1] of 3.2 nM.

Turning to `Cn1cc(C(C)(O)c2cc(F)c3c(c2)C(=O)N(Cc2ccc(Cl)c[n+]2[O-])[C@@]3(OCC2(CO)CC2)c2ccc(Cl)cc2)cn1` (single isomer, unassigned) [Example 407], the inhibition at 0.001 µM in assay [1] (setting [5]) turned out to be 62%. In addition, the IC50 in assay [2] (setting [8]) turned out to be 0.58 µM.

For `CC(C)(O)c1cc(F)c2c(c1)C(=O)N(Cc1ccc(Cl)cn1)[C@@]2(OCC1(CNCCO)CC1)c1ccc(Cl)cc1` [Example 326, (3R)-3-(4-chlorophenyl)-2-[(5-chloropyridin-2-yl)methyl]-4-fluoro-3-[(1-{[(2-hydroxyethyl)amino]methyl}cyclopropyl)methoxy]-6-(2-hydroxypropan-2-yl)-2,3-dihydro-1H-isoindol-1-one], the inhibition at 0.03 µM in assay [1] (setting [4]) was found to be 50%. The IC50 in assay [2] (setting [8]) was found to be 2 µM.

For the molecule `CO[C@]1(c2ccc(Cl)cc2)c2ccc(C(C)(O)C(=O)NCCN(C)C)cc2C(=O)N1Cc1ccc(Cl)cn1` (stereo partly drawn) [Example 149, 2-[(1R)-1-(4-Chlorophenyl)-2-[(5-chloropyridin-2-yl)methyl]-1-methoxy-3-oxo-2,3-dihydro-1H-isoindol-5-yl]-N-[2-(dimethylamino)ethyl]-2-hydroxypropanamide], the inhibition at 1 µM in assay [1] (@ 1.0 μM, read-out: MDM2 % @ concentration) turned out to be 53%.

For `CCC(O)(c1cc(F)c2c(c1)C(=O)N(Cc1ccc(C#N)cn1)[C@@]2(O[C@H]1CCOC1)c1ccc(Cl)cc1)C1(F)CCOCC1` (single isomer, unassigned) [Example 445], the “MDM2 % @ concentration” value in assay [1] (@ 0.0010 μM) was 43% @ 0.0010. The inhibition at 0.1 µM in assay [1] (read-out: MDM2 % @ concentration, @ 0.10 μM) came to 56%.

Turning to `CN1CCC(C(C)(O)c2cc(F)c3c(c2)C(=O)N(Cc2ccc(Cl)cn2)[C@@]3(OCC2(CO)CC2)c2ccc(Cl)cc2)CC1` (single isomer, unassigned) [Example 555], the inhibition at 0.001 µM in assay [1] (setting [5]) was 55%. The IC50 in assay [2] (setting [6]) was found to be 0.079 µM.

For `CCC(O)(c1cc(F)c2c(c1)C(=O)N(Cc1ncc(Cl)cc1O)[C@@]2(O[C@H]1C[C@@H](O)C1)c1ccc(Cl)cc1)c1cn(C)cn1` (single isomer, unassigned) [Example 488], the inhibition at 0.1 µM in assay [1] (setting [3]) is 56%.

With `CCCC(O)(c1cc(F)c2c(c1)C(=O)N(Cc1ccc(C#N)cn1)[C@@]2(O[C@H]1CCOC1)c1ccc(Cl)cc1)c1cn(C)cn1` (single isomer, unassigned) [Example 473], the inhibition at 0.1 µM in assay [1] (setting [3]) amounted to 44%.

`COc1ccc(CN2C(=O)c3cc(C(C)(O)c4cnn(C)c4)cc(F)c3[C@]2(OCC2(O)CC2)c2ccc(Cl)cc2)nc1` (stereo partly drawn) [Example 228, (3R)-3-(4-chlorophenyl)-4-fluoro-6-[1-hydroxy-1-(1-methyl-1H-pyrazol-4-yl)ethyl]-3-[(1-hydroxycyclopropyl)methoxy]-2-[(5-methoxypyridin-2-yl)methyl]-2,3-dihydro-1H-isoindol-1-one]: the inhibition at 0.01 µM in assay [1] (@ 0.010 μM, read-out: MDM2 % @ concentration) worked out at 61%.

Regarding `CCC(O)(c1cc(F)c2c(c1)C(=O)N(Cc1ccc(C#N)cn1)[C@@]2(O[C@H]1CCOC1)c1ccc(Cl)cc1)c1cnn(C)c1` (single isomer, unassigned) [Example 359], the inhibition at 0.1 µM in assay [1] (setting [3]) was 50%.

`CO[C@]1(c2ccc(Cl)cc2)c2c(F)cc(C(C)(O)C3CCN(C(=O)CO)CC3)cc2C(=O)N1Cc1ccc(Cl)cn1` (single isomer, unassigned) [Example 296]: the inhibition at 0.001 µM in assay [1] (setting [5]) stood at 62%.

With `CO[C@]1(c2ccc(Cl)cc2)c2c(F)cc(C(C)(O)c3cnn(C4CN(C(=O)OC(C)(C)C)C4)c3)cc2C(=O)N1Cc1ccc(Cl)cn1` (single isomer, unassigned) [Example 457], in assay [1] (setting [7]), the inhibition at 0.3 µM came to 53%.

Regarding `COc1ccc(CN2C(=O)c3cc(C(C)(O)c4cnn(C)c4)cc(F)c3[C@]2(OCC2(O)CC2)c2ccc(Cl)cc2)nc1` (stereo partly drawn) [Example 347, (3R)-3-(4-chlorophenyl)-4-fluoro-6-[1-hydroxy-1-(1-methyl-1H-pyrazol-4-yl)ethyl]-3-[(1-hydroxycyclopropyl)methoxy]-2-[(5-methoxypyridin-2-yl)methyl]-2,3-dihydro-1H-isoindol-1-one], the inhibition at 0.1 µM in assay [1] (setting [3]) amounted to 63%.

Regarding `Cn1cc(C(C)(O)c2cc(F)c3c(c2)C(=O)N(Cc2ncc(F)cc2F)[C@@]3(OCC2(O)CC2)c2ccc(Cl)cc2)cn1` (single isomer, unassigned) [Example 350], the inhibition at 0.03 µM in assay [1] (setting [4]) amounted to 54%.

Consider `CCC(O)(c1cc(F)c2c(c1)C(=O)N(Cc1ccc(C#N)cn1)[C@@]2(O[C@H]1C[C@@H](O)C1)c1ccc(Cl)cc1)[C@H]1CC[C@H](O)CC1` (single isomer, unassigned) [Example 520], for which the inhibition at 0.03 µM in assay [1] (setting [4]) was 32%. The IC50 in assay [2] (read-out: SJSA1 IC50 (μM) (Protocol B), SJSA-1, Protocol B (CellTiter-Glo), 72 hrs) was determined as 3.9 µM.

Regarding `CO[C@]1(c2ccc(Cl)cc2)c2c(F)cc(C(C)(O)C3CN(C(C)=O)C3)cc2C(=O)N1Cc1ccc(Cl)cn1` (single isomer, unassigned) [Example 389], the IC50 in assay [2] (read-out: SJSA1 IC50 (Protocol B), SJSA-1 cells, CellTiter-Glo, 72 hrs) was 4.2 µM.
